Where two headings read alike, the source gives them in different places. Marks after values point to notes of the source that are not given here.
Key:
Format in all cases: cell-based, human
U87 MG/PER2-dLuc cells [1] = test: cells; conditions: 72 h treatment
Method: U87 MG/PER2-dLuc cells were subjected to the 3-(4, 5-dimethylthiazol-2-yl)-2, 5-diphenyl tetrazolium bromide (MTT) (M2128; Sigma-Aldrich) assay. […] Briefly, U87 MG/PER2-dLuc cells were seeded in 96-well plates at a density of 10^5 cells/mL, incubated for 48 h, and treated with relevant chemicals at various concentrations for 72 h. Subsequently, the media with chemicals were decanted and 20μl of MTT reagent solution (5 mg/ml) with 80μl of the media was added to all wells the plates and were incubated for 2 h until the formation of formazan crystals. The reagent solution was decanted, and 100μl of DMSO (D8418; Sigma-Aldrich) was added. Absorbance was measured at 570 nm using a spectrophotometer (Molecular Devices). The values of triplicate same-treatment wells were averaged.

U87 MG/PER2-dLuc cells [2] = test: in vitro cellular bioluminescence (PER2-dLuc circadian reporter) assay; conditions: for concentration that disrupted the cellular circadian rhythm / concentration with no disruptive effect on cellular circadian rhythm: Fig. 3; for LOAEL Circadian disruption: U87 MG/PER2-dLuc cells, bioluminescence monitored 5 days; for effect on cellular circadian rhythm: at disrupting concentration: MPP + ≥ 30 µM, DDT 10 µM, PMX ≥ 30 µM, CPX ≥ 40 µM, CPF 1.5 µM
Method: U-87 MG (ATCC® HTB-14™) is a well-recognized human glioblastoma cell line widely used in the field of neuroscience. U87 MG cells have a regular and strong cellular circadian rhythm after transfection with a circadian gene (i.e., BMAL1) reporter vector (Jung et al. [2013]; Slat et al. [2017]). As described in our previous report (Fang et al. [2015], [2017]), U87 MG cells were transfected with a circadian reporter vector pGL [PER2P (Luc2P/Neo)] expressing destabilized firefly luciferase driven by the human PER2 promoter using FuGene HD™ transfection reagent (LightSwitch Genomics), and stably transfected cells were selected and cultured with 1000 μg/mL G418 (Invitrogen). The stably transfected cells were used to examine the cellular circadian rhythm using an in vitro cellular bioluminescence assay. U87 MG/PER2P-dLuc cells were cultured in Eagle’s minimum essential medium (EMEM) (11430030; Gibco) supplemented with 5% fetal bovine serum (FBS) (26140079; Gibco) and 1% penicillin/streptomycin (15140122; Gibco) at 37 °C in an atmosphere of 95% humidity and 5% CO2.
(§1) Briefly, cultured U87 MG/PER2 -dLuc cells were seeded in 35-mm dishes at 3 × 10^5 cells/dish and incubated until 70–80% confluency was reached. The cells were FBS-starved for three days at 70% confluency and then synchronized with 50% horse serum (16050122; Gibco) (Balsalobre et al. [1998]). After decanting and washing, recording medium (EMEM with 20% of growing medium containing 5% FBS, 6.5 mM sodium bicarbonate, 10 mM HEPES buffer [pH 7.2], 0.1 mM luciferin [E1602; Promega], and 50 U/mL penicillin and 50 µg/mL streptomycin) was added. Subsequently, the cells were treated with each compound. The 35-mm dishes were sealed with a sterile glass cover slide using silicon grease and subjected to continuous monitoring with a LumiCycle 32™ (Actimetrics) for 5 days. The analytical method was optimized according to the instruction manual of the LumiCycle Analysis Software (Actimetrics). Using this software, data were detrended (running average), and best fits to a sine wave were estimated using the Levenberg–Marquardt algorithm for period, phase, amplitude, and damping rate measurements, as previously reported (Chen et al. [2012]; Fang et al. [2015], [2017]).

U87 MG/PER2-dLuc cells [3] = test: multiparametric high-content screening (HCS) assay; conditions: for LOAEL CA (calcium ion): Fluo-4 AM; for LOAEL MMP (mitochondrial membrane potential): TMRM; for lowest concentration with decrease in MMP / concentrations that decreased nuclear size: 24 h of treatment; for LOAEL LP (lipid peroxidation): BODIPY 665/676; for concentrations with increased lipid peroxidation / concentrations that changed nuclear size: 72 h of treatment; for LOAEL NC (nuclear size): Hoechst 33342; for concentrations that decreased nuclear size: p < 0.01, text; for concentrations that changed nuclear size: MHg biphasic changes, MPP + reduction
Method: A multiparametric analysis of compound toxicity at the level of individual cells was conducted using the HCS method established by Tolosa et al. ([2012]) to assess the liver toxicity of chemicals and drugs. Briefly, U87 MG/PER2-dLuc cells were seeded in 96-well plates specific for HCS at a density of 10^4 cells/well. […] Following these treatments, cells were treated with a mixture of Hoechst 33342 (Hoechst) (B2261; Sigma-Alrich) at 1.5 µg/mL to assess the nuclear size (NC), 75 ng/mL tetramethyl rhodamine methyl ester (TMRM) (T-668; Molecular Probes) as a mitochondrial membrane potential (MMP) sensor, 0.24 µM fluo-4 acetoxymethyl ester (Fluo-4 AM) (F14217; Molecular Probes) to detect intracellular calcium ions (Ca^2+), and 1.5 µg/mL of (E,E)-3,5-bis-(4-phenyl-1,3-butadienyl)-4,4-difluoro-4-bora-3a,4a-diaza-s-indacene (BODIPY 665/676) (b-3932; Molecular Probes) to evaluate lipid peroxidation. After incubation for 1 h, the cells were imaged using an IN Cell Analyzer 6000 (GE Healthcare Life Sciences) and analyzed using IN Cell Miner HCM. The data were analyzed with IN Cell Analyzer 6000 Analysis Software. Nuclear morphological alterations were assessed based on the Hoechst staining. The nucleus was defined as the main object detected using an edge detection algorithm. To separate individual cells, segmentation was applied. All measurements were restricted to live cells. Lipid peroxidation was detected based on BODIPY fluorescence intensity in the cytoplasm. The cellular MMP was defined as the TMRM fluorescence intensity in punctate cytosolic regions surrounding the nucleus. Fluo-4 intensity was used to measure changes in the cytosolic-free Ca^2+ concentration. An intensity algorithm with a fixed threshold was used to measure TMRM, Fluo-4, and BODIPY fluorescence. Each measurement was performed in individual cells. The values of triplicate same-treatment wells were averaged and normalized to the average value of vehicle control (0.1% DMSO-treated or naïve cells).
The values of triplicate same-treatment wells were averaged and normalized to the average value of the negative control group, and differences in parameters between concentrations were analyzed using one-way ANOVA followed by Duncan’s tests. A p-value < 0.05 was considered significant.

U87 MG/PER2-dLuc cells [4] = test: cellular circadian rhythm assay with neurotoxicants in the presence of antioxidants; conditions: for restoration of circadian rhythm disrupted by CPF: 1.5 µM CPF, 20 µM NAC, 12.5 µM (or 25 µM) MSC; for effect on circadian rhythm disrupted by MHg: 2.0 µM MHg, co-treatment with NAC and MSC; for restoration of cellular rhythm disrupted by DDT: 10 µM DDT, co-treatment with NAC (10 or 20 µM) or MSC (12.5 or 25 µM); for restoration of MPP + -disrupted rhythmicity: MPP + at LOAEL, restored rhythm not similar to that of control cells
Method: as §1
The cellular circadian rhythm was recorded as described above.

[5] = Homo sapiens, U-87 MG, no unit with values, axis Concentration[μM], read-out: IC50 (cell viability, MTT; Fig. 1)
[6] = Homo sapiens, U-87 MG, read-out: IC50 (MTT, Table 1)

| Molecule | IC15 (MTT, Table 1) (U87 MG/PER2-dLuc cells [1]) [µM] | concentration that disrupted the cellular circadian rhythm (U87 MG/PER2-dLuc cells [2]) [µM] | LOAEL Circadian disruption (U87 MG/PER2-dLuc cells [2]) [µM] | effect on cellular circadian rhythm (U87 MG/PER2-dLuc cells [2]) | LOAEL CA (calcium ion) (U87 MG/PER2-dLuc cells [3]; 24-h treatment) | LOAEL MMP (mitochondrial membrane potential) (U87 MG/PER2-dLuc cells [3]; 24-h treatment) | LOAEL CA (calcium ion) (U87 MG/PER2-dLuc cells [3]; 72-h treatment) | lowest concentration with decrease in MMP (U87 MG/PER2-dLuc cells [3]) [µM] | concentration that increased intracellular Ca2+ levels (U87 MG/PER2-dLuc cells [3]; 72-h timepoint) | LOAEL LP (lipid peroxidation) (U87 MG/PER2-dLuc cells [3]; 72-h treatment) | concentrations with increased lipid peroxidation (U87 MG/PER2-dLuc cells [3]) | IC50 (U87 MG/PER2-dLuc cells [1]; read-out: IC50 (MTT, Table 1)) [µM] | other results |
| --- | --- | --- | --- | --- | --- | --- | --- | --- | --- | --- | --- | --- | --- |
| CCOP(=S)(OCC)Oc1nc(Cl)c(Cl)cc1Cl [CPF, chlorpyrifos] | 13.9 | 1.5 | 1.5 | abolished the cellular circadian rhythm | 1.41** µM | 1.41** µM | 0.7** µM | 1.41 |  |  |  |  | IC50 (U87 MG/PER2-dLuc cells [1]; [5]): 43.7 µM; IC50 (U87 MG/PER2-dLuc cells [1]; [6]): 60 µM; concentrations that increased the intracellular Ca2+ level (U87 MG/PER2-dLuc cells [3]; both the 24- and 72-h timepoints): 0.7 to 45 µM |
| O=C(O)c1cn(C2CC2)c2cc(N3CCNCC3)c(F)cc2c1=O [CPX, ciprofloxacin] | 19.8 | ≥ 40 | 40 | increased the circadian rhythm |  | 0.94** µM | 0.94** µM | 0.94 | > 0.94 µM | 0.94** µM | > 0.94 µM |  | IC50 (U87 MG/PER2-dLuc cells [1]; [5]): 98.3 µM; IC50 (U87 MG/PER2-dLuc cells [1]; [6]): 98 µM; IC50 (U87 MG/PER2-dLuc cells [1]; Homo sapiens, U-87 MG, read-out: IC50 (cell viability, MTT)): 98.3 µM |
| Clc1ccc(C(c2ccc(Cl)cc2)C(Cl)(Cl)Cl)cc1 [DDT, 4,4′-dichlorodiphenyltrichloroethane] | 18.3 | 10 | 10 | robust rhythm was gradually abolished | 30** µM | 15 µM | 0.47** µM | 15 | > 0.47 µM |  |  | 60 | LOAEL NC (nuclear size) (U87 MG/PER2-dLuc cells [3]; 24-h treatment): 120** µM; concentrations that decreased nuclear size (U87 MG/PER2-dLuc cells [3]): 120 µM |
| [CH3][Hg][Cl] [MHg, methylmercury (II) chloride] | 2.5 | 2.0 |  |  |  | 0.5* µM | 0.031** µM | 0.5 | above 0.03 µM | 0.031** µM | above 0.031 µM | 3.9 | IC50 (U87 MG/PER2-dLuc cells [1]; read-out: IC50 (cell viability, MTT)): 3.97 µM; LOAEL LP (lipid peroxidation) (U87 MG/PER2-dLuc cells [3]; 24-h treatment): 8** µM; LOAEL NC (nuclear size) (U87 MG/PER2-dLuc cells [3]; 24-h treatment): 4** µM; LOAEL NC (nuclear size) (U87 MG/PER2-dLuc cells [3]; 72-h treatment): 4** µM; concentration that significantly reduced lipid peroxidation levels (U87 MG/PER2-dLuc cells [3]; 24 h after treatment): 8.0 µM; concentrations that decreased nuclear size (U87 MG/PER2-dLuc cells [3]): 4 to 8 µM; concentrations that changed nuclear size (U87 MG/PER2-dLuc cells [3]): 2 to 8 µM |
| C[n+]1ccc(-c2ccccc2)cc1 [MPP +, 1-methyl-4-phenylpyridinium] | 68.4 | ≥ 30 | 30 | advanced phase and decreased amplitude | 40 µM | 40* µM | 0.63 µM | 40 | 0.63 µM | 160 µM | > 160 µM | 93 | concentration with no disruptive effect on cellular circadian rhythm (U87 MG/PER2-dLuc cells [2]): 10 µM; concentration that increased intracellular Ca2+ levels (U87 MG/PER2-dLuc cells [3]; 24-h timepoint): 40 µM; LOAEL NC (nuclear size) (U87 MG/PER2-dLuc cells [3]; 72-h treatment): 80 µM; concentrations that changed nuclear size (U87 MG/PER2-dLuc cells [3]): 80 to 120 µM |
| C[Se]C[C@H](N)C(=O)O [MSC, methylselenocysteine] |  |  |  |  |  |  |  |  |  |  |  |  | restoration of circadian rhythm disrupted by CPF (U87 MG/PER2-dLuc cells [4]): restored the circadian rhythm; effect on circadian rhythm disrupted by MHg (U87 MG/PER2-dLuc cells [4]): reduced the first high-altitude peak; restoration of cellular rhythm disrupted by DDT (U87 MG/PER2-dLuc cells [4]): restored the cellular rhythm; restoration of MPP + -disrupted rhythmicity (U87 MG/PER2-dLuc cells [4]): restore the cellular circadian rhythm to a certain extent |
| CC(=O)N[C@@H](CS)C(=O)O [NAC, N-acetyl-L-cysteine] |  |  |  |  |  |  |  |  |  |  |  |  | restoration of circadian rhythm disrupted by CPF (U87 MG/PER2-dLuc cells [4]): restored the circadian rhythm; effect on circadian rhythm disrupted by MHg (U87 MG/PER2-dLuc cells [4]): reduced the first high-altitude peak; restoration of cellular rhythm disrupted by DDT (U87 MG/PER2-dLuc cells [4]): restored the cellular rhythm; restoration of MPP + -disrupted rhythmicity (U87 MG/PER2-dLuc cells [4]): restore the cellular circadian rhythm to a certain extent |
| polymyxin B [PMX] | 49 | ≥ 30 | 30 | advanced phase and decreased amplitude |  | 3.91* µM | 3.91** µM | 3.91 |  |  |  | 51 | concentration with no disruptive effect on cellular circadian rhythm (U87 MG/PER2-dLuc cells [2]): 15 µM |
